# Results taken from US20240344082A1, “VIRAL […] USE IN ENHANCING T-CELL PRIMING DURING VACCINATION” (GeoVax, Inc., priority 2021, published 2024).
# What was measured:
# [1] = system: splenic PyCS-specific, IFN-γ-secreting CD8+ T cells; design: species or system mice; conditions: mouse, in vivo, sc
# [2] = system: antigen-specific CD8+ T-cell expansion; conditions: in combination with adenovirus-based or irradiated sporozoite-based malaria vaccine; immune-competent mice; cited from earlier work
sequence,measurement,setting,value
"CRRTSTGQISTLRVNITAPLSQ [LD01, synthetic peptide used as positive control]",antigen-specific CD8+ T cell numbers relative to AdPyCS alone,[1],significantly increased
same,antigen-specific CD8+ T-cell expansion,[2],enhances
